# Source: patent publication US9777008B2, “PRMT5 inhibitors and uses thereof” (Epizyme, Inc., priority 2012, dated 2017)
# Biological target: PRMT5/MEP50 (Homo sapiens (Human), UniProt O14744)
# Test: PRMT5 Biochemical Assay (PRMT5/MEP50 enzyme assay on peptide substrate, 3H-SAM Flashplate)
# Excerpt: S-adenosylmethionine (SAM), S-adenosylhomocysteine (SAH), bicine, KCl, Tween20, dimethylsulfoxide (DMSO), bovine skin gelatin (BSG), and Tris(2-carboxyethyl)phosphine hydrochloride solution (TCEP) were purchased from Sigma-Aldrich at the highest level of purity possible. ^3H-SAM was purchase from American Radiolabeled Chemicals with a specific activity of 80 Ci/mmol. 384-well streptavidin Flashplates were purchased from PerkinElmer.
# Peptide representative of human histone H4 residues 1-15 was synthesized with a C-terminal linker-affinity tag motif and a C-terminal amide cap by 21st Century Biochemicals. The peptide was high high-performance liquid chromatography (HPLC) purified to greater than 95% purity and confirmed by liquid chromatography mass spectrometry (LC-MS). The sequence was Ac-[…][K-Biot]-amide (SEQ ID NO.:3).
# Molecular Biology: Full-length human PRMT5 (NM_006109.3) transcript variant 1 clone was amplified from a fetal brain cDNA library, incorporating flanking 5′ sequence encoding a FLAG tag ([…]) (SEQ ID NO.:4) fused directly to Ala 2 of PRMT5. Full-length human MEP50 (NM_024102) clone was amplified from a human testis cDNA library incorporating a 5′ sequence encoding a 6-histidine tag (MHHHHHH) (SEQ ID NO.:5) fused directly to Arg 2 of MEP50. The amplified genes were sublconed into pENTR/D/TEV (Life Technologies) and subsequently transferred by Gateway™ attL×attR recombination to pDEST8 baculvirus expression vector (Life Technologies).
# Recombinant baculovirus and Baculovirus-Infected Insect Cells (BIIC) were generated according to Bac-to-Bac kit instructions (Life Technologies) and Wasilko, 2006, respectively. Protein over-expression was accomplished by infecting exponentially growing Spodoptera frugiperda (SF9) cell culture at 1.2×10^6 cell/ml with a 5000 fold dilution of BIIC stock. Infections were carried out at 27° C. for 72 hours, harvested by centrifugation, and stored at −80° C. for purification.
# Flag-PRMT5/6His-MeP50 was eluted with 300 mM Imidazole in the same buffer. The purity of recovered protein was 87%. Reference: Wasilko, D. J. and S. E. Lee: “TIPS: titerless infected-cells preservation and scale-up” Bioprocess J., 5 (2006), pp. 29-32.
# General Procedure for PRMT5/MEP50 Enzyme Assays on Peptide Substrates.
# The assays were all performed in a buffer consisting of 20 mM Bicine (pH=7.6), 1 mM TCEP, 0.005% BSG, and 0.002% Tween20, prepared on the day of use. Compounds in 100% DMSO (1 ul) were spotted into a polypropylene 384-well V-bottom plates (Greiner) using a Platemate Plus outfitted with a 384-channel head (Thermo Scientific). DMSO (1 ul) was added to Columns 11, 12, 23, 24, rows A-H for the maximum signal control and 1 ul of SAH, a known product and inhibitor of PRMT5/MEP50, was added to columns 11, 12, 23, 24, rows I-P for the minimum signal control. A cocktail (40 ul) containing the PRMT5/MEP50 enzyme and the peptide was added by Multidrop Combi (Thermo-Fisher). The compounds were allowed to incubate with PRMT5/MEP50 for 30 min at 25 degrees Celsius, then a cocktail (10 ul) containing ^3H-SAM was added to initiate the reaction (final volume=51 ul). The final concentrations of the components were as follows: PRMT5/MEP50 was 4 nM, ^3H-SAM was 75 nM, peptide was 40 nM, SAH in the minimum signal control wells was 100 uM, and the DMSO concentration was 1%. The assays were stopped by the addition of non-radioactive SAM (10 ul) to a final concentration of 600 uM, which dilutes the ^3H-SAM to a level where its incorporation into the peptide substrate is no longer detectable. 50 ul of the reaction in the 384-well polypropylene plate was then transferred to a 384-well Flashplate and the biotinylated peptides were allowed to bind to the streptavidin surface for at least 1 hour before being washed three times with 0.1% Tween20 in a Biotek ELx405 plate washer. […]
# PRMT5/MEP50, sequence (O14744 other isoform, or with tags, fused parts or gaps): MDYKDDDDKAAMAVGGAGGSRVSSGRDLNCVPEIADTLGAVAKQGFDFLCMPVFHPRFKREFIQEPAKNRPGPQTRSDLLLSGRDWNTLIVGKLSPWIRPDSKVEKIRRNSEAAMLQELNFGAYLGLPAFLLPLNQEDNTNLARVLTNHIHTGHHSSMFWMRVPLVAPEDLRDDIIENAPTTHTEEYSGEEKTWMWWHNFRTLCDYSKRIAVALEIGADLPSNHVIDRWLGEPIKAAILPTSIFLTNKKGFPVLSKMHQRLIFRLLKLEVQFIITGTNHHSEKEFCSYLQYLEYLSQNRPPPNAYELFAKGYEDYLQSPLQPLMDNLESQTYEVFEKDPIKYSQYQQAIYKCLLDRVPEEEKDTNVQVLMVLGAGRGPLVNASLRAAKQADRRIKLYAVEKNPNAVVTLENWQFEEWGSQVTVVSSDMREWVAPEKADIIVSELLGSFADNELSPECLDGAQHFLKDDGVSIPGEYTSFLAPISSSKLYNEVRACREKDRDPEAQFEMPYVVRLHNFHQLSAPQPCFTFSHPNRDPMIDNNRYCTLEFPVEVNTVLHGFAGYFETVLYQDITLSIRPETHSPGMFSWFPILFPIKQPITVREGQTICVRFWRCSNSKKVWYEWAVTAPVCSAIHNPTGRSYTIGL
# PRMT5/MEP50, sequence (Q9BQA1 other isoform, or with tags, fused parts or gaps partner): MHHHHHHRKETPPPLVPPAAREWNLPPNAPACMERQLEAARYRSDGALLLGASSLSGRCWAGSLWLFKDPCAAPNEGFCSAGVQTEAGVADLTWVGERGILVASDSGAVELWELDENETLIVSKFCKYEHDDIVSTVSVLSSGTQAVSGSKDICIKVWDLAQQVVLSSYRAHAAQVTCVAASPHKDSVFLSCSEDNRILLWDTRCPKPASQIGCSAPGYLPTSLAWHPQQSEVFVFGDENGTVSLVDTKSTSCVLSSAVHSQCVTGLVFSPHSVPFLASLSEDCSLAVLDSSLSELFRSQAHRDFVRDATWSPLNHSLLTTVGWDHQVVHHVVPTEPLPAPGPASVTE
row,IC50 [µM],SMILES
1,< 0.1,Cn1cc2ccc(-c3ccnc(NCC(O)CN4CCc5ccccc5C4)c3)cc2n1 (stereo not drawn) [Compound 236]
2,< 0.1,"Cn1cnc2ccc(-c3ccnc(NCC(O)CN4CCc5ccccc5C4)c3)nc21 (stereo not drawn) [Compound 238, 1-(3,4-dihydroisoquinolin-2(1H)-yl)-3-((4-(3-methyl-3H-imidazo[4,5-b]pyridin-5-yl)pyridin-2-yl)amino)propan-2-ol]"
3,< 0.1,"Cn1ccc2cnc(-c3ccnc(NCC(O)CN4CCc5ccccc5C4)c3)nc21 (stereo not drawn) [Compound 239, 1-(3,4-dihydroisoquinolin-2(1H)-yl)-3-((4-(7-methyl-7H-pyrrolo[2,3-d]pyrimidin-2-yl)pyridin-2-yl)amino)propan-2-ol]"
4,< 0.1,OC(CNc1cc(-c2ccc3ncn(C4CCNC4)c3c2)ccn1)CN1CCc2ccccc2C1 (stereo not drawn) [Compound 240]
5,< 0.1,CN1CCC(n2cnc3ccc(-c4ccnc(NCC(O)CN5CCc6ccccc6C5)c4)cc32)C1 (stereo not drawn) [Compound 250]
6,< 0.1,OC(COc1cccc(-c2ncc3ccn(C4CCNCC4)c3n2)c1)CN1CCc2ccccc2C1 (stereo not drawn) [Compound 253]
7,< 0.1,"O[C@@H](COc1cccc(-c2cccc3cccnc23)c1)CN1CCc2ccccc2C1 [Compound 257, (R)-1-(3,4-dihydroisoquinolin-2(1H)-yl)-3-(3-(quinolin-8-yl)phenoxy)propan-2-ol]"
8,0.101 to 1,"O[C@H](COc1cccc(-c2cccc3cccnc23)c1)CN1CCc2ccccc2C1 [Compound 258, (S)-1-(3,4-dihydroisoquinolin-2(1H)-yl)-3-(3-(quinolin-8-yl)phenoxy)propan-2-ol]"
9,0.101 to 1,Cn1cncc1C(=O)Nc1cccc(OC[C@H](O)CN2CCc3ccccc3C2)c1 [Compound 259]
10,1 to 10,Cn1cncc1C(=O)Nc1cccc(OC[C@@H](O)CN2CCc3ccccc3C2)c1 [Compound 260]
11,< 0.1,Cn1cc2ccc(-c3cccc(NCC(O)CN4CCc5ccccc5C4)c3)nc2n1 (stereo not drawn) [Compound 261]
12,< 0.1,OC(CNc1cc(-c2ccc3ncn(C4COC4)c3c2)ccn1)CN1CCc2ccccc2C1 (stereo not drawn) [Compound 265]
13,< 0.1,"Cc1ncc2ccc(-c3cccc(OCC(O)CN4CCc5ccccc5C4)c3)cn12 (stereo not drawn) [Compound 266, 1-(3,4-dihydroisoquinolin-2(1H)-yl)-3-(3-(3-methylimidazo[1,5-a]pyridin-6-yl)phenoxy)propan-2-ol]"
14,< 0.1,OC(COc1cccc(-c2ccc3ncn(C4COC4)c3c2)c1)CN1CCc2ccccc2C1 (stereo not drawn) [Compound 269]
15,< 0.1,"CC(=O)N(CC(O)CN1CCc2ccccc2C1)c1cccc(-c2ccc3ncn(C)c3c2)c1 (stereo not drawn) [Compound 273, N-(3-(3,4-dihydroisoquinolin-2(1H)-yl)-2-hydroxypropyl)-N-(3-(1-methyl-1H-benzo[d]imidazol-6-yl)phenyl)acetamide]"
16,< 0.1,Cn1cnc2ccc(-c3ccnc(NC[C@H](O)CN4CCc5ccccc5C4)c3)cc21 [Compound 275]
17,0.101 to 1,Cn1cnc2ccc(-c3ccnc(NC[C@@H](O)CN4CCc5ccccc5C4)c3)cc21 [Compound 276]
18,> 10,Cn1cnc2ccc(-c3cccc(OCC(O)CN4Cc5ccccc5C(F)(F)C4)c3)cc21 (stereo not drawn) [Compound 277]

# The next lines start with the molecule.
row,SMILES,IC50 [µM]
1,"O=C(Cn1ccc2cnc(-c3ccnc(NCC(O)CN4CCc5ccccc5C4)c3)nc21)N1CCOCC1 (stereo not drawn) [Compound 234, 2-(2-(2-((3-(3,4-dihydroisoquinolin-2(1H)-yl)-2-hydroxypropyl)amino)pyridin-4-yl)-7H-pyrrolo[2,3-d]pyrimidin-7-yl)-1-morpholinoethanone]",< 0.1
2,OC(CNc1cc(-c2ccc3ncn(C4CCNCC4)c3c2)ccn1)CN1CCc2ccccc2C1 (stereo not drawn) [Compound 241],< 0.1
3,CNC(=O)Cn1ccc2cnc(-c3ccnc(NCC(O)CN4CCc5ccccc5C4)c3)nc21 (stereo not drawn) [Compound 245],< 0.1
4,O=C(Cn1ccc2cnc(-c3ccnc(NCC(O)CN4CCc5ccccc5C4)c3)nc21)N1CCCCC1 (stereo not drawn) [Compound 246],< 0.1
5,CN1CCN(C(=O)Cn2ccc3cnc(-c4ccnc(NCC(O)CN5CCc6ccccc6C5)c4)nc32)CC1 (stereo not drawn) [Compound 247],< 0.1
6,"OC(CNc1cc(-c2ccc3ncn(C4CCOCC4)c3c2)ccn1)CN1CCc2ccccc2C1 (stereo not drawn) [Compound 251, 1-(3,4-dihydroisoquinolin-2(1H)-yl)-3-((4-(1-(tetrahydro-2H-pyran-4-yl)-1H-benzo[d]imidazol-6-yl)pyridin-2-yl)amino)propan-2-ol]",< 0.1
7,CN1CCC(n2cnc3ccc(-c4ccnc(NCC(O)CN5CCc6ccccc6C5)c4)cc32)CC1 (stereo not drawn) [Compound 252],< 0.1
8,OC(CNc1cc(-c2ncc3ccn(C4CNC4)c3n2)ccn1)CN1CCc2ccccc2C1 (stereo not drawn) [Compound 254],< 0.1
9,OC(CNc1cc(-c2ncc3ccn(C4CCNCC4)c3n2)ccn1)CN1CCc2ccccc2C1 (stereo not drawn) [Compound 255],< 0.1
10,CC(=O)N1CCC(n2ccc3cnc(-c4ccnc(NCC(O)CN5CCc6ccccc6C5)c4)nc32)CC1 (stereo not drawn) [Compound 256],< 0.1
11,CN1CCCCC1COCC(O)CN1CCc2ccccc2C1 (stereo not drawn) [Compound 289],> 40
12,CN1CCC(OCC(O)CN2CCc3ccccc3C2)CC1 (stereo not drawn) [Compound 293],> 40
13,CCn1ccnc1COCC(O)CN1CCc2ccccc2C1 (stereo not drawn) [Compound 295],> 40
14,OC(COC1CCCNC1)CN1CCc2ccccc2C1 (stereo not drawn) [Compound 297],> 40
15,OC(COC1CCNCC1)CN1CCc2ccccc2C1 (stereo not drawn) [Compound 298],> 40
16,OC(COCC1CCCCO1)CN1CCc2ccccc2C1 (stereo not drawn) [Compound 304],> 40
17,OC(COC1CCNC1)CN1CCc2ccccc2C1 (stereo not drawn) [Compound 306],> 40
18,CN1CCC(OCC(O)CN2CCc3ccccc3C2)C1 (stereo not drawn) [Compound 307],> 40
